Experimental data as given in patent publication US5530126A, “Process for the preparation of substituted 6-(pyrazol-3yl)-1,4-benzoxazin-3-ones” (Monsanto Company, priority 1994, dated 1996).

Columns and labels:
Assay type in all cases: in vivo
Annual bluegrass [1] = test: Pre-emergence herbicide test; settings: read-out: % plant inhibition (Anbg); for inhibition at 1120 g/ha: 1.12 kg/ha; for inhibition at 11210 g/ha: 11.21 kg/ha
Summary of the method: (§1)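 In this greenhouse test, seeds on compacted topsoil receive the active ingredient in an organic solvent or aqueous carrier, are covered with untreated soil and watered from below; percent inhibition is scored approximately 11 days later.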

Barnyardgrass [2] = test: Pre-emergence herbicide test; settings: Echinochloa crus-galli, read-out: % plant inhibition (Bygr); for inhibition at 1120 g/ha: 1.12 kg/ha; for inhibition at 11210 g/ha: 11.21 kg/ha
Summary of the method: as §1

Cocklebur [3] = test: Pre-emergence herbicide test; settings: Xanthium strumarium, read-out: % plant inhibition (Cobu); for inhibition at 1120 g/ha: 1.12 kg/ha; for inhibition at 11210 g/ha: 11.21 kg/ha
Summary of the method: as §1

Downy Brome [4] = test: Pre-emergence herbicide test; settings: Bromus tectorum, read-out: % plant inhibition (Dobr); for inhibition at 1120 g/ha: 1.12 kg/ha; for inhibition at 11210 g/ha: 11.21 kg/ha
Summary of the method: as §1

Indian Mustard [5] = test: Pre-emergence herbicide test; settings: Brassica juncea, read-out: % plant inhibition (Inmu); for inhibition at 1120 g/ha: 1.12 kg/ha; for inhibition at 11210 g/ha: 11.21 kg/ha
Summary of the method: as §1

Morningglory [6] = test: Pre-emergence herbicide test; settings: Ipomoea, read-out: % plant inhibition (Mogl); for inhibition at 1120 g/ha: 1.12 kg/ha; for inhibition at 11210 g/ha: 11.21 kg/ha
Summary of the method: as §1

Seedling johnsongrass [7] = test: Pre-emergence herbicide test; settings: Sorghum halepense, read-out: % plant inhibition (Sejg); for inhibition at 1120 g/ha: 1.12 kg/ha; for inhibition at 11210 g/ha: 11.21 kg/ha
Summary of the method: as §1

Velvetleaf [8] = test: Pre-emergence herbicide test; settings: Abutilon theophrasti, read-out: % plant inhibition (Vele); for inhibition at 1120 g/ha: 1.12 kg/ha; for inhibition at 11210 g/ha: 11.21 kg/ha
Summary of the method: as §1

Wild buckwheat [9] = test: Pre-emergence herbicide test; settings: Fallopia convolvulus, read-out: % plant inhibition (Wibw); for inhibition at 1120 g/ha: 1.12 kg/ha; for inhibition at 11210 g/ha: 11.21 kg/ha
Summary of the method: as §1

Yellow nutsedge [10] = test: Pre-emergence herbicide test; settings: Cyperus, read-out: % plant inhibition (Yens); for inhibition at 1120 g/ha: 1.12 kg/ha; for inhibition at 11210 g/ha: 11.21 kg/ha
Summary of the method: as §1

Annual bluegrass [11] = test: Post-emergence herbicide test; settings: read-out: % plant inhibition (Anbg); for inhibition at 1120 g/ha: 1.12 kg/ha; for inhibition at 11210 g/ha: 11.21 kg/ha
Summary of the method: (§2)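 Rating of injury as % inhibition against control took place at ~11 days (10–14), and sometimes at ~25 days (24–28), following atomizer application (170.3 kPa, 1870 L/Ha, ~0.4% v/v emulsifier) to greenhouse plants aged 2–3 weeks.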

Barnyardgrass [12] = test: Post-emergence herbicide test; settings: Echinochloa crus-galli, read-out: % plant inhibition (Bygr); for inhibition at 1120 g/ha: 1.12 kg/ha; for inhibition at 11210 g/ha: 11.21 kg/ha
Summary of the method: as §2

Cocklebur [13] = test: Post-emergence herbicide test; settings: Xanthium strumarium, read-out: % plant inhibition (Cobu); for inhibition at 1120 g/ha: 1.12 kg/ha; for inhibition at 11210 g/ha: 11.21 kg/ha
Summary of the method: as §2

Downy Brome [14] = test: Post-emergence herbicide test; settings: Bromus tectorum, read-out: % plant inhibition (Dobr); for inhibition at 1120 g/ha: 1.12 kg/ha; for inhibition at 11210 g/ha: 11.21 kg/ha
Summary of the method: as §2

Indian Mustard [15] = test: Post-emergence herbicide test; settings: Brassica juncea, read-out: % plant inhibition (Inmu); for inhibition at 1120 g/ha: 1.12 kg/ha; for inhibition at 11210 g/ha: 11.21 kg/ha
Summary of the method: as §2

Morningglory [16] = test: Post-emergence herbicide test; settings: Ipomoea, read-out: % plant inhibition (Mogl); for inhibition at 1120 g/ha: 1.12 kg/ha; for inhibition at 11210 g/ha: 11.21 kg/ha
Summary of the method: as §2

Seedling johnsongrass [17] = test: Post-emergence herbicide test; settings: Sorghum halepense, read-out: % plant inhibition (Sejg); for inhibition at 1120 g/ha: 1.12 kg/ha; for inhibition at 11210 g/ha: 11.21 kg/ha
Summary of the method: as §2

Velvetleaf [18] = test: Post-emergence herbicide test; settings: Abutilon theophrasti, read-out: % plant inhibition (Vele); for inhibition at 1120 g/ha: 1.12 kg/ha; for inhibition at 11210 g/ha: 11.21 kg/ha
Summary of the method: as §2

Wild buckwheat [19] = test: Post-emergence herbicide test; settings: Fallopia convolvulus, read-out: % plant inhibition (Wibw); for inhibition at 1120 g/ha: 1.12 kg/ha; for inhibition at 11210 g/ha: 11.21 kg/ha
Summary of the method: as §2

Yellow nutsedge [20] = test: Post-emergence herbicide test; settings: Cyperus, read-out: % plant inhibition (Yens); for inhibition at 1120 g/ha: 1.12 kg/ha; for inhibition at 11210 g/ha: 11.21 kg/ha
Summary of the method: as §2

SMILES	inhibition at 1120 g/ha (Annual bluegrass [1]) [%]	inhibition at 1120 g/ha (Barnyardgrass [2]) [%]	inhibition at 1120 g/ha (Cocklebur [3]) [%]	inhibition at 1120 g/ha (Downy Brome [4]) [%]	inhibition at 1120 g/ha (Indian Mustard [5]) [%]	inhibition at 1120 g/ha (Morningglory [6]) [%]	inhibition at 1120 g/ha (Seedling johnsongrass [7]) [%]	inhibition at 1120 g/ha (Velvetleaf [8]) [%]	inhibition at 1120 g/ha (Wild buckwheat [9]) [%]	inhibition at 1120 g/ha (Yellow nutsedge [10]) [%]	inhibition at 1120 g/ha (Annual bluegrass [11]) [%]	inhibition at 1120 g/ha (Barnyardgrass [12]) [%]	inhibition at 1120 g/ha (Cocklebur [13]) [%]	inhibition at 1120 g/ha (Downy Brome [14]) [%]	inhibition at 1120 g/ha (Indian Mustard [15]) [%]	inhibition at 1120 g/ha (Morningglory [16]) [%]	inhibition at 1120 g/ha (Seedling johnsongrass [17]) [%]	inhibition at 1120 g/ha (Velvetleaf [18]) [%]	inhibition at 1120 g/ha (Wild buckwheat [19]) [%]	inhibition at 1120 g/ha (Yellow nutsedge [20]) [%]	further results
CCOC(=O)CSCc1cc(-c2nn(C)c(C(F)(F)F)c2Cl)c(F)cc1Cl [Compound 123]	0	30	50	70	80	100	40	100	90	30	0	50	70	60	30	100	50	100	90	20	–
Cn1nc(C(F)(F)F)c(Cl)c1-c1ccc(F)cc1F [Compound 75]	–	–	–	–	–	–	–	–	–	–	–	–	–	–	–	–	–	–	–	–	inhibition at 11210 g/ha (Annual bluegrass [1]): 0%; inhibition at 11210 g/ha (Barnyardgrass [2]): 20%; inhibition at 11210 g/ha (Cocklebur [3]): 10%; inhibition at 11210 g/ha (Downy Brome [4]): 20%; inhibition at 11210 g/ha (Indian Mustard [5]): 30%; inhibition at 11210 g/ha (Morningglory [6]): 90%; inhibition at 11210 g/ha (Seedling johnsongrass [7]): 50%; inhibition at 11210 g/ha (Velvetleaf [8]): 80%; inhibition at 11210 g/ha (Wild buckwheat [9]): 50%; inhibition at 11210 g/ha (Yellow nutsedge [10]): 20%; inhibition at 11210 g/ha (Annual bluegrass [11]): 0%; inhibition at 11210 g/ha (Barnyardgrass [12]): 0%; inhibition at 11210 g/ha (Cocklebur [13]): 0%; inhibition at 11210 g/ha (Downy Brome [14]): 0%; inhibition at 11210 g/ha (Indian Mustard [15]): 0%; inhibition at 11210 g/ha (Morningglory [16]): 10%; inhibition at 11210 g/ha (Seedling johnsongrass [17]): 0%; inhibition at 11210 g/ha (Velvetleaf [18]): 0%; inhibition at 11210 g/ha (Wild buckwheat [19]): 60%; inhibition at 11210 g/ha (Yellow nutsedge [20]): 0%
Cn1nc(-c2cc(/C=C/C(=O)O)c(Cl)cc2F)c(Cl)c1C(F)(F)F [Compound 351]	0	0	80	0	100	80	0	100	100	0	30	70	100	40	100	100	60	100	100	30	–
Cn1nc(-c2cc(CC(N)=O)c(Cl)cc2F)c(Cl)c1C(F)(F)F [Compound 112]	–	–	–	–	–	–	–	–	–	–	–	–	–	–	–	–	–	–	–	–	inhibition at 11210 g/ha (Annual bluegrass [1]): 100%; inhibition at 11210 g/ha (Barnyardgrass [2]): 100%; inhibition at 11210 g/ha (Cocklebur [3]): 40%; inhibition at 11210 g/ha (Downy Brome [4]): 20%; inhibition at 11210 g/ha (Indian Mustard [5]): 100%; inhibition at 11210 g/ha (Morningglory [6]): 100%; inhibition at 11210 g/ha (Seedling johnsongrass [7]): 90%; inhibition at 11210 g/ha (Velvetleaf [8]): 100%; inhibition at 11210 g/ha (Wild buckwheat [9]): 90%; inhibition at 11210 g/ha (Yellow nutsedge [10]): 80%; inhibition at 11210 g/ha (Annual bluegrass [11]): 30%; inhibition at 11210 g/ha (Barnyardgrass [12]): 60%; inhibition at 11210 g/ha (Cocklebur [13]): 60%; inhibition at 11210 g/ha (Downy Brome [14]): 0%; inhibition at 11210 g/ha (Indian Mustard [15]): 40%; inhibition at 11210 g/ha (Morningglory [16]): 80%; inhibition at 11210 g/ha (Seedling johnsongrass [17]): 30%; inhibition at 11210 g/ha (Velvetleaf [18]): 100%; inhibition at 11210 g/ha (Wild buckwheat [19]): 70%; inhibition at 11210 g/ha (Yellow nutsedge [20]): 40%
Cn1nc(-c2cc(S)c(Cl)cc2Cl)c(Cl)c1C(F)(F)F [Compound 93]	0	0	20	0	10	30	0	20	20	0	10	70	70	50	60	60	40	90	90	0	–
Cn1nc(-c2cc(Oc3ccc(C(F)(F)F)cc3Cl)c(Cl)cc2F)c(Cl)c1C(F)(F)F [Compound 203]	–	–	–	–	–	–	–	–	–	–	–	–	–	–	–	–	–	–	–	–	inhibition at 11210 g/ha (Annual bluegrass [1]): 0%; inhibition at 11210 g/ha (Barnyardgrass [2]): 0%; inhibition at 11210 g/ha (Cocklebur [3]): 20%; inhibition at 11210 g/ha (Downy Brome [4]): 10%; inhibition at 11210 g/ha (Indian Mustard [5]): 0%; inhibition at 11210 g/ha (Morningglory [6]): 10%; inhibition at 11210 g/ha (Seedling johnsongrass [7]): 20%; inhibition at 11210 g/ha (Velvetleaf [8]): 0%; inhibition at 11210 g/ha (Wild buckwheat [9]): 0%; inhibition at 11210 g/ha (Yellow nutsedge [10]): 0%; inhibition at 11210 g/ha (Annual bluegrass [11]): 20%; inhibition at 11210 g/ha (Barnyardgrass [12]): 50%; inhibition at 11210 g/ha (Cocklebur [13]): 60%; inhibition at 11210 g/ha (Downy Brome [14]): 30%; inhibition at 11210 g/ha (Indian Mustard [15]): 60%; inhibition at 11210 g/ha (Morningglory [16]): 60%; inhibition at 11210 g/ha (Seedling johnsongrass [17]): 60%; inhibition at 11210 g/ha (Velvetleaf [18]): 100%; inhibition at 11210 g/ha (Wild buckwheat [19]): 90%; inhibition at 11210 g/ha (Yellow nutsedge [20]): 0%
Cn1nc(-c2cc(CCl)c(Cl)cc2F)c(Cl)c1C(F)(F)F [Compound 109]	20	90	30	20	90	70	80	90	100	0	40	30	40	0	40	60	20	100	90	10	–
